# Results reported in patent US20230159532A1, “PARATHYROID HORMONE (PTH) RECEPTOR ANTAGONISTS AND USES THEREOF” (Crinetics Pharmaceuticals, Inc., priority 2021, published 2023).
# Target: T1, human PTHR1 receptor (Homo sapiens, UniProt Q03431)
# T1 construct: purchased Eurofins HTS030M
# T1 sequence (Q03431 27-593): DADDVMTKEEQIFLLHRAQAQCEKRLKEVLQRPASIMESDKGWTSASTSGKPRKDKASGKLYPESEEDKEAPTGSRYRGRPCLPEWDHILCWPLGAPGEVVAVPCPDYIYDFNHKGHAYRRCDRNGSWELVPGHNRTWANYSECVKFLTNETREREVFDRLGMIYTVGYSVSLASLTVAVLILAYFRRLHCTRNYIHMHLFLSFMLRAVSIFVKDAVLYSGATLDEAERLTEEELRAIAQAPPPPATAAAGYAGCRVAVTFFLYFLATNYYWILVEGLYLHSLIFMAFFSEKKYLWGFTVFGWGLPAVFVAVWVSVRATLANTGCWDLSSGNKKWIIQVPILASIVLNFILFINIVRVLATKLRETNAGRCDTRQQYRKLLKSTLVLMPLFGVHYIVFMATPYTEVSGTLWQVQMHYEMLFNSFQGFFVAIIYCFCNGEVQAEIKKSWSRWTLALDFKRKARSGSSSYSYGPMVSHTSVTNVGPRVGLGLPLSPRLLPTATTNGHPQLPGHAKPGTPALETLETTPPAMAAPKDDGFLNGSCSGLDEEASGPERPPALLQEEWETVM
# Test: Competitive antagonist binding assay for hPTH-R1 (radioactive competition binding, SPA beads)
# Settings: human PTHR1 membranes, [125I]-[Nle8,18,Tyr34]-PTH(1-34) 0.2 nM, 90 minutes at room temperature; read-out: hPTHR1 Ki
# Outline: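 Human PTHR1 membranes on SPA beads incubated 90 min at room temperature with compound (typically 0-10,000 nM final) and 0.2 nM [125I]-[Nle8,18,Tyr34]-PTH(1-34) in HEPES buffer with MgCl2, CaCl2, BSA, Triton X-100 and protease inhibitors, pH 7.4. Scintillation signal read; Ki values derived.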
row,SMILES,Ki
1,"CCN1C(=O)N(c2c(F)cc(NCCN[C@H]3C[C@H](O)C3)cc2F)c2cc(C#N)ccc2-c2cc(C(F)(F)F)cnc21 [1-224, 10-{2,6-difluoro-4-[(2-{[(1r,3r)-3-hydroxycyclobutyl]amino}ethyl)amino]phenyl}-8-ethyl-9-oxo-4-(trifluoromethyl)-6,8,10-triazatricyclo[9.4.0.0^2,7]pentadeca-1(11),2(7),3,5,12,14-hexaene-13-carbonitrile]",< 100 nM
2,"CCN1C(=O)N(c2c(F)cc(NCCNCC(N)CO)cc2F)c2cc(C#N)ccc2-c2cc(Cl)cnc21 (stereo not shown) [1-225, 10-[4-({2-[(2-amino-3-hydroxypropyl)amino]ethyl}amino)-2,6-difluorophenyl]-4-chloro-8-ethyl-9-oxo-6,8,10-triazatricyclo[9.4.0.0^2,7]pentadeca-1(11),2(7),3,5,12,14-hexaene-13-carbonitrile]",< 100 nM
3,"CCN1C(=O)N(c2c(F)cc(NCCNCCO)cc2F)c2cc(C)ccc2-c2cc(F)cnc21 [1-226, 10-[2,6-difluoro-4-({2-[(2-hydroxyethyl)amino]ethyl}amino)phenyl]-8-ethyl-4-fluoro-13-methyl-6,8,10-triazatricyclo[9.4.0.0^2,7]pentadeca-1(11),2(7),3,5,12,14-hexaen-9-one]",< 100 nM
4,"CCN1C(=O)N(c2c(F)cc(NCCNCC(=O)O)cc2F)c2cc(C#N)ccc2-c2cc(C(F)(F)F)cnc21 [1-227, 2-{[2-({4-[13-cyano-8-ethyl-9-oxo-4-(trifluoromethyl)-6,8,10-triazatricyclo[9.4.0.0^2,7]pentadeca-1(11),2(7),3,5,12,14-hexaen-10-yl]-3,5-difluorophenyl}amino)ethyl]amino}acetic acid]",< 100 nM
5,"CCN1C(=O)N(c2c(F)cc(NCCNCCN3CCNC3=O)cc2F)c2cc(C#N)ccc2-c2cc(Cl)cnc21 [1-228, 4-chloro-10-{2,6-difluoro-4-[(2-{[2-(2-oxoimidazolidin-1-yl)ethyl]amino}ethyl)amino]phenyl}-8-ethyl-9-oxo-6,8,10-triazatricyclo[9.4.0.0^2,7]pentadeca-1(11),2(7),3,5,12,14-hexaene-13-carbonitrile]",< 100 nM
6,"CCN1C(=O)N(c2c(F)cc(NCCNCCOCCC(=O)O)cc2F)c2cc(C#N)ccc2-c2cc(Cl)cnc21 [1-229, 3-[2-({2-[(4-{4-chloro-13-cyano-8-ethyl-9-oxo-6,8,10-triazatricyclo[9.4.0.0^2,7]pentadeca-1(11),2(7),3,5,12,14-hexaen-10-yl}-3,5-difluorophenyl)amino]ethyl}amino)ethoxy]propanoic acid]",< 100 nM
7,"CCN1C(=O)N(c2c(F)cc(NCCNC[C@H](O)c3ccccc3)cc2F)c2cc(C#N)ccc2-c2cc(Cl)cnc21 [1-230, 4-chloro-10-{2,6-difluoro-4-[(2-{[(2R)-2-hydroxy-2-phenylethyl]amino}ethyl)amino]phenyl}-8-ethyl-9-oxo-6,8,10-triazatricyclo[9.4.0.0^2,7]pentadeca-1(11),2(7),3,5,12,14-hexaene-13-carbonitrile]",< 100 nM
8,"CCN1C(=O)N(c2c(F)cc(NCCN3CC[C@@H](O)C3)cc2F)c2cc(C#N)ccc2-c2cc(Cl)cnc21 [1-231, 4-chloro-10-[2,6-difluoro-4-({2-[(3R)-3-hydroxypyrrolidin-1-yl]ethyl}amino)phenyl]-8-ethyl-9-oxo-6,8,10-triazatricyclo[9.4.0.0^2,7]pentadeca-1(11),2(7),3,5,12,14-hexaene-13-carbonitrile]",< 100 nM
9,"CCN1C(=O)N(c2c(F)cc(NCCN[C@H]3C[C@@H](O)C3)cc2F)c2cc(C#N)ccc2-c2cc(F)cnc21 [1-232, 10-{2,6-difluoro-4-[(2-{[(1s,3s)-3-hydroxycyclobutyl]amino}ethyl)amino]phenyl}-8-ethyl-4-fluoro-9-oxo-6,8,10-triazatricyclo[9.4.0.0^2,7]pentadeca-1(11),2(7),3,5,12,14-hexaene-13-carbonitrile]",< 100 nM
10,"CCN1C(=O)N(c2c(F)cc(NCCN[C@@H](CCSC)C(=O)O)cc2F)c2cc(C#N)ccc2-c2cc(Cl)cnc21 [1-233, (2S)-2-({2-[(4-{4-chloro-13-cyano-8-ethyl-9-oxo-6,8,10-triazatricyclo[9.4.0.0^2,7]pentadeca-1(11),2(7),3,5,12,14-hexaen-10-yl}-3,5-difluorophenyl)amino]ethyl}amino)-4-(methylsulfanyl)butanoic acid]",< 100 nM
11,"CCN1C(=O)N(c2c(F)cc(NC3CNC3)cc2F)c2cc(C#N)ccc2-c2cc(Cl)cnc21 [1-234, 10-{4-[(azetidin-3-yl)amino]-2,6-difluorophenyl}-4-chloro-8-ethyl-9-oxo-6,8,10-triazatricyclo[9.4.0.0^2,7]pentadeca-1(11),2(7),3,5,12,14-hexaene-13-carbonitrile]",< 100 nM
12,"CCN1C(=O)N(c2c(F)cc(N3CC[C@H](NC)C3)cc2F)c2cc(C#N)ccc2-c2cc(Cl)cnc21 [1-235, 4-chloro-10-{2,6-difluoro-4-[(3S)-3-(methylamino)pyrrolidin-1-yl]phenyl}-8-ethyl-9-oxo-6,8,10-triazatricyclo[9.4.0.0^2,7]pentadeca-1(11),2(7),3,5,12,14-hexaene-13-carbonitrile]",< 100 nM
13,"CCN1C(=O)N(c2c(F)cc(NCCN[C@H](C)C(=O)O)cc2F)c2cc(C#N)ccc2-c2cc(Cl)cnc21 [1-236, (2R)-2-({2-[(4-{4-chloro-13-cyano-8-ethyl-9-oxo-6,8,10-triazatricyclo[9.4.0.0^2,7]pentadeca-1(11),2(7),3,5,12,14-hexaen-10-yl}-3,5-difluorophenyl)amino]ethyl}amino)propanoic acid]",< 100 nM
14,"CCN1C(=O)N(c2c(F)cc(NCCNCCN)cc2F)c2cc(C#N)ccc2-c2cc(F)cnc21 [1-237, 10-[4-({2-[(2-aminoethyl)amino]ethyl}amino)-2,6-difluorophenyl]-8-ethyl-4-fluoro-9-oxo-6,8,10-triazatricyclo[9.4.0.0^2,7]pentadeca-1(11),2(7),3,5,12,14-hexaene-13-carbonitrile]",< 100 nM
15,"CCN1C(=O)N(c2c(F)cc(NCCNCC3CCCN3)cc2F)c2cc(C#N)ccc2-c2cc(Cl)cnc21 (stereo not shown) [1-238, 4-chloro-10-{2,6-difluoro-4-[(2-{[(pyrrolidin-2-yl)methyl]amino}ethyl)amino]phenyl}-8-ethyl-9-oxo-6,8,10-triazatricyclo[9.4.0.0^2,7]pentadeca-1(15),2(7),3,5,11,13-hexaene-13-carbonitrile]",< 100 nM
16,"CCN1C(=O)N(c2c(F)cc(NCCNC[C@@H](O)c3ccccc3)cc2F)c2cc(C#N)ccc2-c2cc(Cl)cnc21 [1-239, 4-chloro-10-{2,6-difluoro-4-[(2-{[(2S)-2-hydroxy-2-phenylethyl]amino}ethyl)amino]phenyl}-8-ethyl-9-oxo-6,8,10-triazatricyclo[9.4.0.0^2,7]pentadeca-1(11),2(7),3,5,12,14-hexaene-13-carbonitrile]",< 100 nM
17,"CCN1C(=O)N(c2c(F)cc(NCCN[C@@H](CC(C)C)C(=O)O)cc2F)c2cc(C#N)ccc2-c2cc(Cl)cnc21 [1-240, (2S)-2-({2-[(4-{4-chloro-13-cyano-8-ethyl-9-oxo-6,8,10-triazatricyclo[l9.4.0.0^2,7]pentadeca-1(11),2(7),3,5,12,14-hexaen-10-yl}-3,5-difluorophenyl)amino]ethyl}amino)-4-methylpentanoic acid]",< 100 nM
18,"CCN1C(=O)N(c2c(F)cc(N3CC[C@H](N)C3)cc2F)c2cc(C#N)ccc2-c2cc(Cl)cnc21 [1-241, 10-{4-[(3 S)-3-aminopyrrolidin-1-yl]-2,6-difluorophenyl}-4-chloro-8-ethyl-9-oxo-6,8,10-triazatricyclo[9.4.0.0^2,7]pentadeca-1(11),2(7),3,5,12,14-hexaene-13-carbonitrile]",< 100 nM
19,"CCN1C(=O)N(c2c(F)cc(NCCNCC(=O)O)cc2F)c2cc(Cl)ccc2-c2cc(Cl)cnc21 [1-242, 2-({2-[(4-{4,13-dichloro-8-ethyl-9-oxo-6,8,10-triazatricyclo[9.4.0.0^2,7]pentadeca-1(11),2(7),3,5,12,14-hexaen-10-yl}-3,5-difluorophenyl)amino]ethyl}amino)acetic acid]",< 100 nM
20,"CNCCNc1ccc(N2C(=O)N(C)c3ncccc3-c3ccc(Cl)cc32)cc1 [2-1, 13-chloro-8-methyl-10-(4-{[2-(methylamino)ethyl]amino}phenyl)-6,8,10-triazatricyclo[9.4.0.0^2,7]pentadeca-1(11),2(7),3,5,12,14-hexaen-9-one]",100 to 1000 nM
21,"CNCCNc1ccc(N2C(=O)N(C)c3ncccc3-c3ccc(Cl)cc32)c(F)c1 [2-2, 13-chloro-10-(2-fluoro-4-{[2-(methylamino)ethyl]amino}phenyl)-8-methyl-6,8,10-triazatricyclo[9.4.0.0^2,7]pentadeca-1(11),2(7),3,5,12,14-hexaen-9-one]",100 to 1000 nM
22,"CCN1C(=O)N(c2ccc(NCCNC)cc2)c2cc(Cl)ccc2-c2cc(Cl)cnc21 [2-3, 4,13-dichloro-8-ethyl-10-(4-{[2-(methylamino)ethyl]amino}phenyl)-6,8,10-triazatricyclo[9.4.0.0^2,7]pentadeca-1(11),2(7),3,5,12,14-hexaen-9-one]",< 100 nM
